Reference: patent publication US5434256A, “Diamine platinum complexes as antitumor agents” (priority 1994, dated 1995)

Key:
[1] = test system: Murine Leukemia L1210/DACH; test: In vivo antitumor activity against murine leukemia L1210/DACH (Example 3, Table 6); design: species or system BDF1 mice; conditions: for MTD (Maximum Tolerated Dose) / % T/C (mean survival time of treated/mean survival time of control) × 100: L1210/DACH i.p., BDF1 mice, drug i.p. days 1, 5, 9; for % T/C (mean survival time of treated/mean survival time of control) × 100: at optimal dose/MTD
Protocol: (§1) Each of the platinum complexes was evaluated in vivo against L1210/0, L1210/DDP, L1210/DACH and M5076 cells at several dose levels. […] The data at optimal doses are reproduced in Tables 4-7 along with data for the cyclobutanedicarboxylato, aquasulfato, methylmalonato and tartronato analogs (compounds 1-4 in Table 1).
(§2) BDF1 mice inoculated i.p. with 10^5 L1210 Leukemia cells on day 0 and
(§3) drug administered i.p. on days 1, 5, and 9. MTD = Maximum Tolerated Dose
(§4) (mg/kg/injection), % T/C = (mean survival time of treated/mean survival
(§5) time of control) × 100. Figures in parenthesis indicated long term

L1210/DDP cells [2] = test: MTT cytotoxicity, cisplatin-resistant L1210/DDP (Example 5, Table 10); type: cell-based, murine; conditions: 72 hr (3 days) continuous exposure
L1210/DDP cells [3] = test: In vivo antitumor activity, cisplatin-resistant L1210/DDP (Example 6, Table 11); design: species or system male BDF1 mice; conditions: L1210/DDP i.p.; drug i.p. days 1, 5, 9; median survival; optimal dose (mg/kg/inj): 12: 25; Cisplatin: 5
Protocol: (§6) Cisplatin-sensitive L1210/0 or cisplatin-resistant L1210/DDP cells (1×10^5 cells/mouse) were injected intraperitoneally in male BDF1 mice on day 0, and the drug, in an aqueous medium, administered intraperitoneally at dose levels ranging from 1.56 to 200 mg/kg on days 1, 5 and 9. The median life spans of control (C) and treated (T) animals were determined, and the percent T/C at the optimal dose calculated as an indicator of antitumor efficacy. The complexes were also evaluated against the M5076 reticulosarcoma. […]. The tumor volumes were measured periodically and efficacy at the optimal dose reported as tumor growth delay (TGD), which is defined as the time difference in days for the tumor in control and treated mice to reach a specified volume.
(§7) BDF1 mice inoculated i.p. with 10^5 L1210 Leukemia cells on day 0 wer
(§8) administered the drug on days 1, 5, and 9. BDF1 mice inoculated s.c. with
(§9) 10^7 M5076 cells on day 0 received the drug on days 5, 9, 13, and 17.
(§10) % T/C = [(median survival time of treated)/(median survival time of
(§11) control)] × 100. TGD = tumor growth delay.

A2780 cells = test: Modified MTT cytotoxicity assay, human ovarian A2780 (Example 2, Table 3); type: cell-based; conditions: continuous exposure (5 days in table footnote; 7 days in text)
L1210/0 cells [4] = test: In vivo antitumor activity, L1210/0 (Example 6, Table 11); design: species or system male BDF1 mice; conditions: for % T/C at optimal dose: L1210/0 i.p., drug i.p. days 1, 5, 9, median survival, optimal dose (mg/kg/inj): 12, 13, 14: 25, 15: 12.5, Cisplatin: 5; for Optimal Dose: i.p., dose levels 1.56 to 200 mg/kg tested, L1210/0, L1210/DDP and M5076
Protocol: as §6, §7
administered the drug on days 1, 5, and 9. […]

M5076 reticulosarcoma = test: In vivo antitumor activity, M5076 reticulosarcoma (Example 6, Table 11); design: species or system male BDF1 mice; conditions: M5076 s.c.; drug i.p. days 5, 9, 13, 17; optimal dose (mg/kg/inj): 12: 25; Cisplatin: 5
Protocol: as §6, §7, §8, §9, §10, §11

Murine Leukemia 1210/DDP = test: In vivo antitumor activity against murine leukemia L1210/DDP (Example 3, Table 7); design: species or system BDF1 mice; conditions: for MTD (Maximum Tolerated Dose) / % T/C (mean survival time of treated/mean survival time of control) × 100: L1210/DDP i.p., BDF1 mice, drug i.p. days 1, 5, 9; for % T/C (mean survival time of treated/mean survival time of control) × 100: at optimal dose/MTD
Protocol: as §1, §2
drug administed i.p. on days 1, 5, and 9. MTD = Maximum Tolerated Dose
as §4, §5

L1210/0 cells [5] = test: MTT cytotoxicity, L1210/0 (Example 5, Table 10); type: cell-based, murine; conditions: 72 hr (3 days) continuous exposure
M5076 Tumor Model = test: In vivo antitumor activity against M5076 tumor model (Example 3, Table 4); design: species or system BDF1 mice; TGD (Tumor Growth Delay): unit not given beside the values; conditions: for MTD (Maximum Tolerated Dose) / TGD (Tumor Growth Delay): M5076 s.c., BDF1 mice, i.p. days 7, 14, 21, 28; for TGD (Tumor Growth Delay): at optimal dose/MTD
Protocol: as §1
BDF1 mice inoculated s.c. with 10' M5076 cells on day 0 and drug
administered i.p on days 7, 14, 21, and 28. MTD = Maximum Tolerated Dose
(mg/kg/injection), TGD = Tumor Growth Delay

L1210/0 cells [6] = test: Modified MTT cytotoxicity assay, murine leukemia L1210/0 (Example 2, Table 3); type: cell-based; conditions: for IC50: L1210/0, MTT, continuous exposure 5 days; for effectiveness against murine versus human cells (in words): L1210/0 versus A2780
L1210/DACH cells = test: MTT cytotoxicity, tetraplatin-resistant L1210/DACH (Example 5, Table 10); type: cell-based, murine; conditions: 72 hr (3 days) continuous exposure
Murine Leukemia L1210/0 = test: In vivo antitumor activity against murine leukemia L1210/0 (Example 3, Table 5); design: species or system BDF1 mice; conditions: for % T/C (mean survival time of treated/mean survival time of control) × 100: at optimal dose/MTD
Protocol: as §1
BDF1 mice inoculated i.p. with 10^5 L1210 Leukemiacells on day 0 and
as §3, §4
time of control) × 100. Figures in parenthesis indicate long term

[7] = Renal and hematological toxicity, single i.p. dose (Table 8)
[8] = L1210/0 i.p., BDF1 mice, drug i.p. days 1, 5, 9

| Structure (SMILES) | antitumor activity in vivo against L1210/DACH (in words) [1] | MTD (Maximum Tolerated Dose) [1] [mg/kg/injection] | % T/C (mean survival time of treated/mean survival time of control) × 100 [1] [%] | IC50 (L1210/DDP cells [2]) [nM] | % T/C at optimal dose (L1210/DDP cells [3]) [%] | IC50 (A2780 cells) [nM] | % T/C at optimal dose (L1210/0 cells [4]) [%] | Optimal Dose (L1210/0 cells [4]) [mg/kg/inj] | TGD (tumor growth delay) at optimal dose (M5076 reticulosarcoma) [days] | MTD (Maximum Tolerated Dose) (Murine Leukemia 1210/DDP) [mg/kg/injection] | % T/C (mean survival time of treated/mean survival time of control) × 100 (Murine Leukemia 1210/DDP) [%] | IC50 (L1210/0 cells [5]) [nM] | MTD (Maximum Tolerated Dose) (M5076 Tumor Model) [mg/kg/injection] | TGD (Tumor Growth Delay) (M5076 Tumor Model) | IC50 (L1210/0 cells [6]) [nM] | effectiveness against murine versus human cells (in words) (L1210/0 cells [6]) | IC50 (L1210/DACH cells) [nM] | MTD (Maximum Tolerated Dose) (Murine Leukemia L1210/0; [8]) [mg/kg/injection] | % T/C (mean survival time of treated/mean survival time of control) × 100 (Murine Leukemia L1210/0; [8]) [%] | other results |
| --- | --- | --- | --- | --- | --- | --- | --- | --- | --- | --- | --- | --- | --- | --- | --- | --- | --- | --- | --- | --- |
| N.N.[Cl][Pt][Cl] [Cis-platin, cis-diaminedichloroplatinum(II), reference compound] | minimally sensitive to cis-platin | 5.0 | 127 | 32800 | 110 | 360 | 218 | 5 | 16.0 | 5.0 | 100 | 200 | 5.0 | 23.1 | 230 | more effective against murine than human cells | 1910 | 5.0 | 218 |  |
| CC(=O)[O][Pt]([Cl])([Cl])[O]C(C)=O.N[C@@H]1CCCC[C@H]1N [Compound 12, (R,R-1,2-DACH)PtCl2 trans(acetate)2] |  |  |  | 700 | 144 |  | 276 | 25 | 18.3 |  |  | 220 |  |  |  |  | 2300 |  |  |  |
| CC(=O)[O][Pt]([Cl])([Cl])[O]C(C)=O.N[C@H]1CCCC[C@@H]1N [Compound 13, (S,S-1,2-DACH)PtCl2 trans-(acetate)2] |  |  |  | 7000 |  |  | 265 | 25 |  |  |  | 880 |  |  |  |  | 4200 |  |  |  |
| CC(=O)[O][Pt]([Cl])([Cl])[O]C(C)=O.NC1CCCCC1N [Compound 14, (cis-1,2-DACH)PtCl2 trans(acetate)2] |  |  |  | 115000 |  |  | 171 | 25 |  |  |  | 3000 |  |  |  |  | 20900 |  |  |  |
| N[C@@H]1CCCC[C@H]1N.O=C([O][Pt]([Cl])([Cl])[O]C(=O)C(F)(F)F)C(F)(F)F [Compound 15, (R,R-1,2-DACH)PtCl2 trans(trifluoroacetate)2] |  |  |  | 850 |  |  | 241 | 12.5 |  |  |  | 100 |  |  |  |  | 1720 |  |  |  |
| N[C@@H]1CCCC[C@H]1N.[Cl][Pt+2]([Cl])([Cl])[Cl] [Tetraplatin, reference compound] | resistant to tetraplatin | 3.1 | 89 | 440 |  | 200 |  |  |  | 3.1 | 143 | 110 | 3.1 | 11.8 | 110 | more effective against murine than human cells | 5300 | 3.1 | 310 | BUN d.5 ([7]; blood urea nitrogen, single i.p. dose (mg/kg): 1,4-DACH-Pt^II CBDCA 300, 1,4-DACH-Pt^IV Cl4 8.0, Tetraplatin 8.0, Cis-platin 12.0, Carboplatin 150, saline control 20.9): 17.2 mg %; Survivors on d.14 ([7]; single i.p. dose (mg/kg): 1,4-DACH-Pt^II CBDCA 300, 1,4-DACH-Pt^IV Cl4 8.0, Tetraplatin 8.0, Cis-platin 12.0, Carboplatin 150): 5/5; Body Wt. on d.5 ([7]; single i.p. dose (mg/kg): 1,4-DACH-Pt^II CBDCA 300, 1,4-DACH-Pt^IV Cl4 8.0, Tetraplatin 8.0, Cis-platin 12.0, Carboplatin 150, mean, S.D. less than 20%): 94 % on control; myelotoxicity / myelosuppression (in words) ([7]; single i.p. dose, leucopenia): myelosuppressive; antitumor activity in vivo against L1210/DDP (in words) (Murine Leukemia 1210/DDP; L1210/DDP): active; antitumor properties against M5076 (in words) (M5076 Tumor Model; M5076): the least active; potency relative to cis-platin (L1210/0 cells [6]; L1210/0 and A2780 tumor lines, more potent than cis-platin): 2-3 fold; antitumor activity in vivo against L1210/0 (in words) (Murine Leukemia L1210/0; L1210/0): active; long term survivors/no. tested (Murine Leukemia L1210/0; L1210/0 i.p., BDF1 mice, drug i.p. days 1, 5, 9, figures in parenthesis): 2/5 |
